Measured values: patent US5475000A, “3-(substituted tetrazolyl)-4-oxo-4H-pyrido-[1,2-a]pyrimidines, salts thereof, pharmaceutical compositions containing them and process for preparing same” (Chinoin Gyogyszer-es Vegyeszeti Termekek Gyara Rt., priority 1991, dated 1995)
Counter-ions that a name gives are not always drawn.

Experiments:
[1] = system: gastric mucosa lesion induced by 96% ethanol containing hydrochloric acid; assay: Protective action against the gastric mucosa lesion induced by 96% ethanol containing hydrochloric acid (acid-ethanol gastric ulcer), p.o.; format: in vivo; settings: Rattus norvegicus, po, rats, 0.5 ml of 1:0.02 mixture of 96% ethanol and hydrochloric acid, read-out: ID50 p.o. mg/kg, gastric mucosa lesion induced by 96% ethanol containing hydrochloric acid
Procedure: As an example, the protective action of the compounds according to the invention against gastric ulcer induced by 0.5 ml of a 1:0.02 volume ratio mixture of 96% ethanol and hydrochloric acid is illustrated in Table 1. [for the method, see: Gastroenterology 77, 433 (1979)]
Protective action in rats of the compounds according to the
invention against the gastric mucosa lesion induced by 96%
ethanol containing hydrochloric acid

[2] = system: indomethacin-induced gastric mucosa lesion; assay: Inhibition of the indomethacin-induced gastric mucosa lesion, p.o.; format: in vivo; settings: Rattus norvegicus, po, rats, read-out: ID50 p.o. mg/kg, indomethacin-induced gastric mucosa lesion
Excerpt: The effect of the compounds to the invention, given as examples, against the indomethacin-induced ulcer [Arch. Int.
Inhibition of the indomethacin-induced gastric mucosa

[3] = system: indomethacin-induced duodenal ulcer; assay: Indomethacin-induced duodenal/small intestine ulcer formation (method of Tsuromi), with lethality caused by indomethacin; format: in vivo, rat; settings: 50 mg/kg on 4 consecutive days, 15 mg/kg oral indomethacin on 2nd day, vs control
Procedure: According to the method of Tsuromi (J. Pharm. Dyn. 1980, 3, 659) the compound was administered to the rats in a dose of 50 mg/kg on 4 consecutive days. On the 2nd day a 15 mg/kg oral dose of indomethacin was given to the rats. The ulcer formation was determined in the small intestine on the 3rd day following the administration of the indomethacin. In comparison to the control, the compound according to the invention exerted an inhibition of 20% on the ulcer formation and also an inhibition of 100% on the lethality caused by indomethacin.

[4] = system: gastrointestinal ulceration induced by indomethacin; assay: Gastrointestinal ulceration induced by indomethacin (known compound); format: in vivo

## Cc1cccn2c(=O)c(-c3nnnn3C(C)C)cnc12 [3-(1-isopropyl-1H-tetrazol-5-yl)-9-methyl-4-oxo-4H-pyrido[1,2-a]pyrimidine]
[1]
  ED50: 0.34 mg/kg

## C=CCn1nnc(-c2cnc3c(C)cccn3c2=O)n1 [3-(2-allyl-2H-tetrazol-5-yl)-9-methyl-4-oxo-4H-pyrido[1,2-a]pyrimidine]
[1]
  ED50: 2.9 mg/kg
[2]
  ED50: 2.5 mg/kg

## CCCCn1nnc(-c2cnc3c(C)cccn3c2=O)n1 [3-(2-butyl-2H-tetrazol-5-yl)-9-methyl-4-oxo-4H-pyrido[1,2-a]pyrimidine]
[1]
  ED50: 2 mg/kg

## CC(C)n1nnc(-c2cnc3ccccn3c2=O)n1 [3-(2-isopropyl-2H-tetrazol-5-yl)-4-oxo-4H-pyrido[1,2-a]pyrimidine]
[1]
  ED50: 2.2 mg/kg
[2]
  ED50: 4 mg/kg

## Cc1cccn2c(=O)c(-c3nnn(C(C)C)n3)cnc12 [3-(2-isopropyl-2H-tetrazol-5-yl)-9-methyl-4-oxo-4H-pyrido[1,2-a]pyrimidine]
[1]
  ED50: 0.23 mg/kg
[2]
  ED50: 2.6 mg/kg

## CCCn1nnc(-c2cnc3c(C)cccn3c2=O)n1 [3-(2-propyl-2H-tetrazol-5-yl)-9-methyl-4-oxo-4H-pyrido[1,2-a]pyrimidine]
[3]; determined on 3rd day following indomethacin
  inhibition on the ulcer formation in the small intestine: 20%
[3]
  inhibition on the lethality caused by indomethacin: 100%
[1]
  ED50: 0.05 mg/kg
[2]
  ED50: 5.5 mg/kg

## Cc1cccn2c(=O)c(-c3nn[nH]n3)cnc12 [9-methyl-3-(5-tetrazolyl)-4-oxo-4-H-pyrido[1,2-a]pyrimidine potassium salt]
[4]
  prevention of the gastrointestinal ulceration induced by indomethacin: did not prevent
